Patent publication US12338220B2, “Antiviral pyrazolopiridinone compounds” (Novartis AG, priority 2019, dated 2025)
Like-named read-outs stand apart in the source and are kept apart here.

Key:
CMV = assay: microbe, parasite or virus in culture; format: cell-based; settings: Human betaherpesvirus 5, 72 h, read-out: CMV-Luc Cellular EC50, NN-NHDF cells, MOI 1, 72 hrs
HSV-polymerase = HSV-polymerase (Human herpesvirus 1 (strain 17) (HHV-1) (Human herpes simplex virus 1), UniProt P04293); assay: biochemical
CMV-polymerase = CMV-polymerase (Human cytomegalovirus (strain AD169) (HHV-5) (Human herpesvirus 5), UniProt P08546); assay: biochemical
[1] = read-out: CMV-polymerase Biochemical IC50
[2] = CMV-polymerase Biochemical IC50

Structure (SMILES) | EC50 (CMV) [nM] | IC50 (HSV-polymerase) [nM] | IC50 (CMV-polymerase; [1]) [nM] | IC50 (HSV-polymerase; read-out: HSV-polymerase Biochemical IC50) [nM] | IC50 (CMV-polymerase; [2]) [nM]
Cn1nc(C(=O)NCc2ccc(C#N)cc2)c2ccn(CC3(S(C)(=O)=O)CC3)c(=O)c21 [Example 2, N-(4-Cyanobenzyl)-1-methyl-6-((1-(methylsulfonyl)cyclopropyl)methyl)-7-oxo-6,7-dihydro-1H-pyrazolo[3,4-c]pyridine-3-carboxamide] | 536 | 1880 | 27 | – | –
CNS(=O)(=O)C1(CN2CCc3c(C(=O)NCc4ccc(C#N)cc4)nn(C)c3C2=O)CC1 [Example 123, N-(4-cyanobenzyl)-1-methyl-6-((1-(N-methylsulfamoyl)cyclopropyl)methyl)-7-oxo-4,5,6,7-tetrahydro-1H-pyrazolo[3,4-c]pyridine-3-carboxamide] | 157 | 196 | 9 | – | –
Cn1nc(C(=O)NCc2ccc(C#N)cc2)c2c1C(=O)N(CC1(S(=O)(=O)C3COC3)CC1)CC2 [Example 168, N-(4-cyanobenzyl)-1-methyl-6-((1-(oxetan-3-ylsulfonyl)cyclopropyl)methyl)-7-oxo-4,5,6,7-tetrahydro-1H-pyrazolo[3,4-c]pyridine-3-carboxamide] | 72 | – | – | 97 | 4
CC(O)COCC(C)(C)S(=O)(=O)C1(CN2CCc3c(C(=O)NCc4ccc(C#N)cc4)nn(C)c3C2=O)CC1 (single isomer, unassigned) [Example 90, (R)- or (S)-N-(4-Cyanobenzyl)-6-((1-((1-(2-hydroxypropoxy)-2-methylpropan-2-yl)sulfonyl)cyclopropyl)methyl)-1-methyl-7-oxo-4,5,6,7-tetrahydro-1H-pyrazolo[3,4-c]pyridine-3-carboxamide] | 58 | 97 | – | – | 7
CC(=O)NCC(C)(C)S(=O)(=O)C1(CN2CCc3c(C(=O)NCc4ccc(C#N)cc4)nn(C)c3C2=O)CC1 [Example 72, 6-((1-((1-Acetamido-2-methylpropan-2-yl)sulfonyl)cyclopropyl)methyl)-N-(4-cyanobenzyl)-1-methyl-7-oxo-4,5,6,7-tetrahydro-1H-pyrazolo[3,4-c]pyridine-3-carboxamide] | 83 | 51 | – | – | 2
[2H]C([2H])(O)C(C)(C)S(=O)(=O)C1(CN2CCc3c(C(=O)NCc4ccc(C#N)cc4)nn(C)c3C2=O)CC1 [Example 56, N-(4-Cyanobenzyl)-6-((1-((1-hydroxy-2-methylpropan-2-yl-1,1-d2)sulfonyl)cyclopropyl)methyl)-1-methyl-7-oxo-4,5,6,7-tetrahydro-1H-pyrazolo[3,4-c]pyridine-3-carboxamide] | 21 | 17 | – | – | 1
Cn1nc(C(=O)NCc2ccc(Cl)cc2)c2c1C(=O)N(CC1(S(=O)(=O)C(C)(C)C(N)=O)CC1)CC2 [Example 109, 6-((1-((1-amino-2-methyl-1-oxopropan-2-yl)sulfonyl)cyclopropyl)methyl)-N-(4-chlorobenzyl)-1-methyl-7-oxo-4,5,6,7-tetrahydro-1H-pyrazolo[3,4-c]pyridine-3-carboxamide] | 78 | 76 | 3 | – | –
Cn1nc(C2=NO[C@H](c3ccc(C#N)cc3)C2)c2c1C(=O)N(CC1(S(=O)(=O)C3CC3)CC1)CC2 [Example 33, (S)-4-(3-(6-((1-(cyclopropylsulfonyl)cyclopropyl)methyl)-1-methyl-7-oxo-4,5,6,7-tetrahydro-1H-pyrazolo[3,4-c]pyridin-3-yl)-4,5-dihydroisoxazol-5-yl)benzonitrile] | 9940 | > 25000 | – | – | 1190
Cn1nc(C(=O)NCc2ccc(C#N)cc2)c2c1C(=O)N(CC1(S(=O)(=O)C3(C(O)CO)CC3)CC1)CC2 (single isomer, unassigned) [Example 194, (R)- or (S)-N-(4-Cyanobenzyl)-6-((1-((1-(1,2-dihydroxyethyl)cyclopropyl)sulfonyl)cyclopropyl)methyl)-1-methyl-7-oxo-4,5,6,7-tetrahydro-1H-pyrazolo[3,4-c]pyridine-3-carboxamide] | 50 | 20 | – | – | 1
